For two molecules, IC50 results are on record in ChEMBL document CHEMBL5647690, “Inhibition of demethylases by GSK-J1/J4” (Nature, 2014).

Where only a bound is given, the exact number is not on record here.

For test [1], the target named is T1, Lysine-specific demethylase 2B (Homo sapiens, UniProt Q8NHM5).
T1 sequence (Q8NHM5 whole entry): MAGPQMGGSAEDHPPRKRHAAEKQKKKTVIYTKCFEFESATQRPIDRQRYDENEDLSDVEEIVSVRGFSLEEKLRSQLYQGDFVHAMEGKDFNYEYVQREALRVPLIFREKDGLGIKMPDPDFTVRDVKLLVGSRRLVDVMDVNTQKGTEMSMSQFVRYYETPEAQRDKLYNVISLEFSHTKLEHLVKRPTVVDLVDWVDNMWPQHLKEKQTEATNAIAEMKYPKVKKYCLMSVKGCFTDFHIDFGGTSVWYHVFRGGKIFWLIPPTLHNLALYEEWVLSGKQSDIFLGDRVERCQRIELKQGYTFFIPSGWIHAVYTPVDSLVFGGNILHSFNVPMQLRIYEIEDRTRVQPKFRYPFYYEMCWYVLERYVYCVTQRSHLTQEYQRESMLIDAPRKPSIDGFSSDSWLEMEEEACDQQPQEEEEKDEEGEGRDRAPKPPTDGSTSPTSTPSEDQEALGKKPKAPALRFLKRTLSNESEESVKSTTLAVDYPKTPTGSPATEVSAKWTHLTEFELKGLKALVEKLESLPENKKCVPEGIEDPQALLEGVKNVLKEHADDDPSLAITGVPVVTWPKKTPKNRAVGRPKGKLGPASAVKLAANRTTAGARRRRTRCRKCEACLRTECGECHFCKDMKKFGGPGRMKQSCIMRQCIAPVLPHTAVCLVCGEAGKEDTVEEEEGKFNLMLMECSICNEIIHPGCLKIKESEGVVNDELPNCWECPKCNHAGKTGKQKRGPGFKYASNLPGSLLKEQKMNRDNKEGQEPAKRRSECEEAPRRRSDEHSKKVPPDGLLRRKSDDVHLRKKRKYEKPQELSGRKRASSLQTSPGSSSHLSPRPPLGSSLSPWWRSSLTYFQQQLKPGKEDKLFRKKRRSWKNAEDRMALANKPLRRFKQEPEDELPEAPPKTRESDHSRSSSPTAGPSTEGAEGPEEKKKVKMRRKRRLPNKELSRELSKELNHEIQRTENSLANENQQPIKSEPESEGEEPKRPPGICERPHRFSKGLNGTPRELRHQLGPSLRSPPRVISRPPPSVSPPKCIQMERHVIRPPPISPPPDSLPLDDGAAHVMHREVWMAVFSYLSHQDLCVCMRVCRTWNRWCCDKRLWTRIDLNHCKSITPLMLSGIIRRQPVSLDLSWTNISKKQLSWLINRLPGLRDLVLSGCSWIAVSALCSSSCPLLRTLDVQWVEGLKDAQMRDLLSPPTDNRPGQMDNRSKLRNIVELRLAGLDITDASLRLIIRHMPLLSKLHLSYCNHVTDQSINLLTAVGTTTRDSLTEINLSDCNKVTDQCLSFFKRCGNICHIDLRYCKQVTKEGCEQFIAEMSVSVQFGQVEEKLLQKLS
In words: Inhibition of KDM2B (1 to 650 residues)(unknown origin) by Alphalisa assay. A general note: Alpha assays give light when donor and acceptor beads are brought close together.

Test [2] concerns the target Lysine-specific demethylase 3B (Homo sapiens, UniProt Q7LBC6). In words: Inhibition of KDM3B (842 to 1761 residues)(unknown origin) by Alphalisa assay.
Test [3] addresses T2, Lysine-specific demethylase 4C (Homo sapiens, UniProt Q9H3R0).
T2 sequence (Q9H3R0 whole entry): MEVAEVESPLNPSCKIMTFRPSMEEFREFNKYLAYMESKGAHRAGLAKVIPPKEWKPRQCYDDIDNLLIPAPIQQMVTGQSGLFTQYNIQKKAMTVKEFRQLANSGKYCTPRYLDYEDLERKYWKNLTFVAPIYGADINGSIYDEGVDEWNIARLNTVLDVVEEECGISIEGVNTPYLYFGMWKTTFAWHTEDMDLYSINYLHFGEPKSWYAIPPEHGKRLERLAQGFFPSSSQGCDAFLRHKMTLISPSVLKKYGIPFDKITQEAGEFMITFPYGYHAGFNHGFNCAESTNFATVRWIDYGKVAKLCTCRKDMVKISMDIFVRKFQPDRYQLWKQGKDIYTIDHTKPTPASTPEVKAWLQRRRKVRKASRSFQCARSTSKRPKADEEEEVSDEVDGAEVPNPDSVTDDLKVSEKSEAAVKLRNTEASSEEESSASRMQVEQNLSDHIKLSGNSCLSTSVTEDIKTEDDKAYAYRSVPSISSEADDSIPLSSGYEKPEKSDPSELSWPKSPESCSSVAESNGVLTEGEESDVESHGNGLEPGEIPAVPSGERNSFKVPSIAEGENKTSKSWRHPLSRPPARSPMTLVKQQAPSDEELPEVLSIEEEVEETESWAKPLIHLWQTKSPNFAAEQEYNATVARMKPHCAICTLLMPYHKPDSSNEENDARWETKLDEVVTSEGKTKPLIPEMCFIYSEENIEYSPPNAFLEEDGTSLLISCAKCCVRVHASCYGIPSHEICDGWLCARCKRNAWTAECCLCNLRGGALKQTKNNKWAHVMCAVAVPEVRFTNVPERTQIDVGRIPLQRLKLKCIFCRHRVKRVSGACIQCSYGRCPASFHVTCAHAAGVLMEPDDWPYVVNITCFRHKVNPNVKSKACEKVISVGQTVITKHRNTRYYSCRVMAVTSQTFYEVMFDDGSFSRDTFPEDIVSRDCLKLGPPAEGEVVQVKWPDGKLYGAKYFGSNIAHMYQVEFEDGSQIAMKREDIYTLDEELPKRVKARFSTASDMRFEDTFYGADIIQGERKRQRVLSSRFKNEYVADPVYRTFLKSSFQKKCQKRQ
In words: Inhibition of KDM4C (1 to 349 residues)(unknown origin) by Alphalisa assay.

Test [4] addresses Lysine-specific demethylase 5C (Homo sapiens, UniProt P41229). In words: Inhibition of KDM5C (2 to 1560 residues)(unknown origin) by Alphalisa assay.
The target in test [5] is Histone lysine demethylase PHF8 (Homo sapiens, UniProt Q9UPP1). In words: Inhibition of PHF8 (1 to 1024 residues)(unknown origin) by Alphalisa assay.
Chain of Histone lysine demethylase PHF8 (Q9UPP1 whole entry, the tested form may be a part): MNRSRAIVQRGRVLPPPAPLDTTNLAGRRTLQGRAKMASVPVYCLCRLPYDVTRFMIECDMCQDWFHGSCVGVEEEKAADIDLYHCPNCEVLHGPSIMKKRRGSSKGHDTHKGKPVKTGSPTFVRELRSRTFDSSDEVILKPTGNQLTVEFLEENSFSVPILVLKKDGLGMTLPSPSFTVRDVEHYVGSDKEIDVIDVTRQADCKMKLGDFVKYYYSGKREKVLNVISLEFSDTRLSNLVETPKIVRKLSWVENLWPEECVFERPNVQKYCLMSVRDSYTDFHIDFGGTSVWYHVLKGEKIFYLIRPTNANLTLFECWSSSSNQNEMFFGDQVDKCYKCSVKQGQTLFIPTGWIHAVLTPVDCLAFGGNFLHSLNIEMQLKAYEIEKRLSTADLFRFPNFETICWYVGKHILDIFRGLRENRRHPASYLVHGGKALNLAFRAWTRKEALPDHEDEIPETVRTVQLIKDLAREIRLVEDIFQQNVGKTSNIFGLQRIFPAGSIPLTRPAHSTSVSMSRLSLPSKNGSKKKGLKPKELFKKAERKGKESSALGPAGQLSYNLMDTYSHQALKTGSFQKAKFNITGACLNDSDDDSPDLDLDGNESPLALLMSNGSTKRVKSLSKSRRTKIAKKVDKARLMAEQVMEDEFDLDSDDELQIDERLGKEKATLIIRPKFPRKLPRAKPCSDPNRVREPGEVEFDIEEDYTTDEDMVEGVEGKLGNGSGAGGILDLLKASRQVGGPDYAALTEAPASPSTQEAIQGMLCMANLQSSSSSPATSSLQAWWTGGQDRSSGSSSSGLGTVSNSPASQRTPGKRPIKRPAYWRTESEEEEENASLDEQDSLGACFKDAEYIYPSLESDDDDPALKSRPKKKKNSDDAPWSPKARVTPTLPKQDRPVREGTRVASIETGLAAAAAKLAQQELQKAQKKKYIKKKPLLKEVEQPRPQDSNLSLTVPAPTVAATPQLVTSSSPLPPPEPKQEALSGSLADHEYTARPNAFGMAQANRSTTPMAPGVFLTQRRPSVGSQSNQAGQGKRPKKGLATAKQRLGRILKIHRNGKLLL

Chain of Lysine-specific demethylase 3B (Q7LBC6 whole entry, the tested form may be a part): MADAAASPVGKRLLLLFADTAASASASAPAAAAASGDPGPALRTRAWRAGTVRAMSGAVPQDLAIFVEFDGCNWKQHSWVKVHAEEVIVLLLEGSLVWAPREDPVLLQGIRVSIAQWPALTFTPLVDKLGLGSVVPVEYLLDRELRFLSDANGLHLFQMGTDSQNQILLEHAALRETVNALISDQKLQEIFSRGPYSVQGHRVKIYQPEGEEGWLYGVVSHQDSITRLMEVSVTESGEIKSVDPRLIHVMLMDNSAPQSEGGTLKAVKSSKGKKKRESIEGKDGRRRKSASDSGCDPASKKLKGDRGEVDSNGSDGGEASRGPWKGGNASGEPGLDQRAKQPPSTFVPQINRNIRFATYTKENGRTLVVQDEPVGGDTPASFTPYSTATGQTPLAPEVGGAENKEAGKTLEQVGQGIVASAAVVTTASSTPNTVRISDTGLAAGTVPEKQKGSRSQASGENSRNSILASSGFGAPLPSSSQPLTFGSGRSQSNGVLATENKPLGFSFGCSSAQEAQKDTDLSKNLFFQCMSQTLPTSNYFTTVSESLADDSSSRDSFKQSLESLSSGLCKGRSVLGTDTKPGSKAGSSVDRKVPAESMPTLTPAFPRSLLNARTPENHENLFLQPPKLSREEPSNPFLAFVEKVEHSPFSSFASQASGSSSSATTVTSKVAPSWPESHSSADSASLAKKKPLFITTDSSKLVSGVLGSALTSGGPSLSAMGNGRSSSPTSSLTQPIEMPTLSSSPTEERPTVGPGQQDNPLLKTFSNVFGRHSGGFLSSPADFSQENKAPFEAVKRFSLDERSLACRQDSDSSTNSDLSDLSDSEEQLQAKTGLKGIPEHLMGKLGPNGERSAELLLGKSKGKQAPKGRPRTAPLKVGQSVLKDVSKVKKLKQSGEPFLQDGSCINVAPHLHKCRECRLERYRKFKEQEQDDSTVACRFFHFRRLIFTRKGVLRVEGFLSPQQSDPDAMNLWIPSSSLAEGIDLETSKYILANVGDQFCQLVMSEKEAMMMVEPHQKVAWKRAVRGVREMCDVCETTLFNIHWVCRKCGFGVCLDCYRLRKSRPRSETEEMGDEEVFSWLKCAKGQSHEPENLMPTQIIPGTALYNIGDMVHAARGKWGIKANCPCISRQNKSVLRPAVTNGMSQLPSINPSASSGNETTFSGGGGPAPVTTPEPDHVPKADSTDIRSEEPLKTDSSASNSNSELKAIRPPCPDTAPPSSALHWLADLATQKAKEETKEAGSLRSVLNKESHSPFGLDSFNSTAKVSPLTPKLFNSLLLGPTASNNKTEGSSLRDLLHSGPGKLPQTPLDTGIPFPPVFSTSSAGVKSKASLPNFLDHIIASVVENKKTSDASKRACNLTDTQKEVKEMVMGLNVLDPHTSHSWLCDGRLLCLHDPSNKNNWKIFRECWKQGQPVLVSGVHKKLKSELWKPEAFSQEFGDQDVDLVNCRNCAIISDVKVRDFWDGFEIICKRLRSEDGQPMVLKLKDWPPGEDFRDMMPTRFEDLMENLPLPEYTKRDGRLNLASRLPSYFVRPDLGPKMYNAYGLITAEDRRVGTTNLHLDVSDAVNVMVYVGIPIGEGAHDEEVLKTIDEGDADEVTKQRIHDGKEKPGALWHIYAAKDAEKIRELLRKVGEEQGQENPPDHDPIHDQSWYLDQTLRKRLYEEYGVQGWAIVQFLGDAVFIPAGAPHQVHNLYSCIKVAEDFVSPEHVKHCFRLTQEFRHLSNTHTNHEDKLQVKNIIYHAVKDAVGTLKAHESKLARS
Chain of Lysine-specific demethylase 5C (P41229 whole entry, the tested form may be a part): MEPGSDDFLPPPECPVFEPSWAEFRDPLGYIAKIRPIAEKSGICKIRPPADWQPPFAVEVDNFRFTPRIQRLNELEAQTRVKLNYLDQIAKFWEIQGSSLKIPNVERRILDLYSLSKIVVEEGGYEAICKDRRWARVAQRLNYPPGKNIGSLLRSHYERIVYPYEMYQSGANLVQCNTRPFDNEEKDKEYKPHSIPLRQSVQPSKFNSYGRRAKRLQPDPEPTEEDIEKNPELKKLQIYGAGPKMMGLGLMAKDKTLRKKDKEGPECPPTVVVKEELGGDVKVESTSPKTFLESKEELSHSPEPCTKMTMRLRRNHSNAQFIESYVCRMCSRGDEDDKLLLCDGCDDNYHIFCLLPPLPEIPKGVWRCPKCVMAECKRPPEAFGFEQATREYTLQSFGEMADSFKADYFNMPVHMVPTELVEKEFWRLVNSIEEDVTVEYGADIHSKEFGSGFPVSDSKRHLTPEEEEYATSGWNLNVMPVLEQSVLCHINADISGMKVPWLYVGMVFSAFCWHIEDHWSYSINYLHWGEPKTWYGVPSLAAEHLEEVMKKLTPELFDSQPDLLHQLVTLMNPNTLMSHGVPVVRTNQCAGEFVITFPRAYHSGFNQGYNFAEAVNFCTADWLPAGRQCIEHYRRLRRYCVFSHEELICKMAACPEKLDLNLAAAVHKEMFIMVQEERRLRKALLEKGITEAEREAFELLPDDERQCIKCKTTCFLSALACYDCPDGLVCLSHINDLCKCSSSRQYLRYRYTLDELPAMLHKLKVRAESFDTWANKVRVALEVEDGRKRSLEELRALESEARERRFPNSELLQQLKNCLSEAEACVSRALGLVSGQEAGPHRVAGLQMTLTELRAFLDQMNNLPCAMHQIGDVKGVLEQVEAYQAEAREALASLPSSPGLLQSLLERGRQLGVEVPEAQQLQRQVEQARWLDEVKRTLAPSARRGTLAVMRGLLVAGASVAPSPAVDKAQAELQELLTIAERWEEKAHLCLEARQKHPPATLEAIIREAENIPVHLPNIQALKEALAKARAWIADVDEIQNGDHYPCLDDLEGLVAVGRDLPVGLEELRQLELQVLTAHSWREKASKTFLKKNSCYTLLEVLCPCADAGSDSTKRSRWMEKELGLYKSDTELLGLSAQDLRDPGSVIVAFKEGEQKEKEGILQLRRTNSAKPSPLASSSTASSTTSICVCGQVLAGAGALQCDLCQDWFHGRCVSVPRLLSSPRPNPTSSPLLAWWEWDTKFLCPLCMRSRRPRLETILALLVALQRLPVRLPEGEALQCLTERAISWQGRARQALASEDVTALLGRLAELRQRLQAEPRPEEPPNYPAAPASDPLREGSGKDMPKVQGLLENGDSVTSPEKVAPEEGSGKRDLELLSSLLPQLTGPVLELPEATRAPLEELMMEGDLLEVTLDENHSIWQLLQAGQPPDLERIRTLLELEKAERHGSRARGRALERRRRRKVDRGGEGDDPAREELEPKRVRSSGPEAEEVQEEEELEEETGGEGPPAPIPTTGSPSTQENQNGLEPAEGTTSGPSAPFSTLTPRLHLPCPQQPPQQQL

On to `CCOC(=O)CCNc1cc(N2CCc3ccccc3CC2)nc(-c2ccccn2)n1`, for which the IC50 (in general, the concentration needed to halve the response being measured) in test [1] came out at 2.1 µM; in test [2], 6.9 µM; in test [3] it was 5.5 µM; in test [4] it was 15 µM; in test [5], 4.2 µM.

In the case of `O=C(O)CCNc1cc(N2CCc3ccccc3CC2)nc(-c2ccccn2)n1`, the IC50 was 21 µM in test [1]; greater than 75 µM in test [2]; 34 µM in test [3]; 0.55 µM in test [4]; 28 µM in test [5].
